Peptide text beside a SMILES is read from it.
Columns and labels:
[1] = Calcemic action in normal rats (blood ionized calcium); assay type: in vivo; conditions: normal and TPTX rats
Description: Binding to the rat PTHR was also measured in vitro.
Concentration of peptides in stock solution were adjusted by dilution with 25 mmol/L phosphate-citrate buffer/100 mmol/L NaCl/0.05% Tween 80 (pH. 5.0) (PC-buffer). All peptides were allowed to stand on ice immediately before administration.
Female SD-IGS rat at 8 weeks of age (Charles River Japan, Inc.) were measured for their body weight. Blood was collected by tail vein into heparinized capillary tubes and measured for baseline levels of blood ionized calcium and pH using Ca^++/pH analyzer (Model 634/Bayer Medical Ltd.) to give the corrected level of ionized calcium at pH 7.4 for each sample. Rats received intravenous administration of each peptides at a dose of 1 ml/kg. Peptides were administered to groups of 6 rats each respectively. At 1, 2, 4, or 6 hours after administration, blood was collected by tail vein to monitor the time course of corrected blood ionized calcium levels. The time course of changes in corrected ionized calcium levels, compared to vehicle, and are expressed as means+/−standard error.

human PTH receptor = molecular target: T1, human PTH receptor (Homo sapiens, UniProt Q03431); test: cAMP in HRKRK-B7 cells EC50 (nM)
T1 construct: expressed in transfected cells
Text: Table printed on a drawing sheet, Figure 25
Head of the field: cAMP in HRKRK-B7 cells EC50 (nM)
First copying reader's note: The column head prints the cell line as HRKRK-B7 while the title prints HKRK-B7.

[2] = molecular target: T2, hPTH1R (R0 form of the human PTH receptor) (Homo sapiens, UniProt Q03431); test: R0 memb: hPTH1R*PTH( 1-34)+GTPgS
T2 construct: expressed in transfected cells; host or cells: COS-7, transient (Fugene-6)

[3] = molecular target: hPTH1R (RG form of the human PTH receptor); test: RG memb: hPTH1R+dnGS *M-PTH(1-15)
[4] = molecular target: T3, human PTHR, G protein-uncoupled conformation (R^0) (Homo sapiens, UniProt Q03431); test: Competition binding to R0 conformation of hPTHR (COS-7 membranes, GTPγS, 125I-PTH(1-34) tracer); conditions: human PTH receptor on COS-7 cell membranes
T3 construct: expressed in transfected cells; host or cells: COS-7, transient (Fugene-6)
T3 sequence (Q03431 27-593): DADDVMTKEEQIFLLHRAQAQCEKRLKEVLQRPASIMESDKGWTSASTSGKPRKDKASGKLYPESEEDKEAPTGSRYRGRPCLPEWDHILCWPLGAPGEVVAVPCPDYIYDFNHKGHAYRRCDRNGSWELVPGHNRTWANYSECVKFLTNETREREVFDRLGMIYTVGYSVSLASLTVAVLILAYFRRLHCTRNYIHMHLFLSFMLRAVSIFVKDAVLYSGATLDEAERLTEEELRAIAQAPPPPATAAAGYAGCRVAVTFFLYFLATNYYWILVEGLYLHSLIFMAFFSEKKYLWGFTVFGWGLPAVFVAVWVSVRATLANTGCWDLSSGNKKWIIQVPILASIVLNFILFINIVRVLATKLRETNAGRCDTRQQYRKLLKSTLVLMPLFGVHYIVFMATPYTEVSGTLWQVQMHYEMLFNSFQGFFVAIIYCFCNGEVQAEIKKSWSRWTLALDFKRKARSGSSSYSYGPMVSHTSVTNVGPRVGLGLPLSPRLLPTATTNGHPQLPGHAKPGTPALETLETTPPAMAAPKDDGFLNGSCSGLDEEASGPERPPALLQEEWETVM
Method in brief: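 Bound versus free radioligand was separated by vacuum filtration after 90 min incubation of COS-7 hPTHR membranes (20-100 μg/mL) with tracer and competing peptides. Non-specific binding came from a saturating unlabeled analog.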

human PTH1 receptor = molecular target: T4, human PTH1 receptor (Homo sapiens, UniProt Q03431); test: cAMP signaling dose-response in HKRK-B7 cells; assay type: cell-based; conditions: 15 min, 37° C., IBMX
T4 construct: expressed in transfected cells
T4 sequence (Q03431 27-593): T3 sequence (Q03431 27-593)
Description: In the cAMP experiments of FIG. 14, HKRK-B7 were seeded in 96 well plates at 1×10^5 cells/well and incubated overnight. On the following day, the cells were washed once with […] of binding buffer (50 mM Tris-HCl, pH 7.7, 100 mM NaCl, 5 mM KCl, 2 mM CaCl2, 5% heat-inactivated horse serum, 0.5% heat-inactivated fetal bovine serum), followed by addition of 100 μl cAMP assay buffer (DMEM, 2 mM IBMX, 1 mg/ml bovine serum albumin, 35 mM Hepes-NaOH, pH 7.4) on ice. […] After removing the medium, the plates were placed on powdered dry ice to freeze the cells and then removed from dry ice. The cells were thawed with 50 μl of 50 mM HCl and frozen again on dry ice. The level of intracellular cAMP was measured with a commercially available cAMP EIA kit (Biotrack cAMP EIA system, GE Healthcare).
HKRK-B, which are LLC-PK1 cells over-expressing human PTH1 receptor at levels of 9.5×10^5 per cell were used in the cAMP signaling assay. The cells were cultured at 37° C. in a humidified atmosphere containing 5% CO2 in Dulbecco's modified Eagle's medium (DMEM), supplemented with 10% fetal bovine serum (Hyclone), 100 units/ml penicillin G, and 100 μg/ml streptomycin sulfate (Invitrogen Corp). […] All peptides were dissolved at 1 mM in 10 mM acetic acid, and stored at −80° C. The cAMP stimulation assay was performed as described above for HKRK-B7 cells. […] Cells were treated for 15 minutes at 37° C. with varying concentrations of ligands in the presence of IBMX.

Structure (SMILES)	calcemic action compared with control peptides, in words [1]	EC50 (human PTH receptor) [nM]	IC50 [2] [nM]	IC50 [3] [nM]	R0/RG ratio [4]	cAMP in HKRK-B7 cells Max (human PTH1 receptor) [pm/well]
CC[C@H](C)[C@H](NC(=O)[C@H](CCC(=O)O)NC(=O)[C@H](C)NC(=O)[C@@H](NC(=O)[C@H](Cc1c[nH]cn1)NC(=O)[C@@H](NC(=O)[C@H](CCC(=O)O)NC(=O)[C@H](C)NC(=O)[C@@H](NC(=O)[C@H](CC(C)C)NC(=O)[C@H](Cc1c[nH]cn1)NC(=O)[C@H](Cc1c[nH]cn1)NC(=O)[C@H](CC(C)C)NC(=O)[C@H](Cc1ccccc1)NC(=O)[C@H](CCC(=O)O)NC(=O)[C@@H](NC(=O)[C@H](CCCNC(=N)N)NC(=O)[C@H](CCC(=O)O)NC(=O)[C@H](CCSC)NC(=O)[C@H](CO)NC(=O)[C@H](CC(N)=O)NC(=O)[C@H](CC(C)C)NC(=O)[C@H](Cc1c[nH]cn1)NC(=O)[C@H](CCCCN)NC(=O)CNC(=O)[C@H](CC(C)C)NC(=O)[C@H](CC(N)=O)NC(=O)[C@H](Cc1c[nH]cn1)NC(=O)[C@H](CCSC)NC(=O)[C@H](CC(C)C)NC(=O)[C@H](CCC(N)=O)NC(=O)[C@@H](NC(=O)[C@H](CCC(=O)O)NC(=O)[C@H](CO)NC(=O)[C@@H](NC(=O)[C@@H](N)CO)C(C)C)[C@@H](C)CC)C(C)C)[C@@H](C)CC)[C@@H](C)CC)[C@@H](C)O)C(=O)O [PTH(1-22)/PTHrP(23-36)] (H-SVSEIQLMHNLGKHLNSMERVEFLHHLIAEIHTAEI-OH)	weaker calcemic actions than did either PTH(1-34) or PTHrP(1-36) control peptides	0.89	16.8	0.22	–	–
CC[C@H](C)[C@H](NC(=O)[C@H](CCC(=O)O)NC(=O)[C@H](C)NC(=O)[C@@H](NC(=O)[C@H](C)N)C(C)C)C(=O)N[C@@H](CCC(N)=O)C(=O)N[C@@H](CC(C)C)C(=O)N[C@@H](CCSC)C(=O)N[C@@H](Cc1c[nH]cn1)C(=O)N[C@@H](CC(N)=O)C(=O)N[C@@H](CC(C)C)C(=O)NCC(=O)N[C@@H](CCCCN)C(=O)N[C@@H](Cc1c[nH]cn1)C(=O)N[C@@H](CC(C)C)C(=O)N[C@@H](CC(N)=O)C(=O)N[C@@H](CO)C(=O)N[C@@H](CCSC)C(=O)N[C@@H](CCC(=O)O)C(=O)N[C@@H](CCCNC(=N)N)C(=O)N[C@H](C(=O)N[C@@H](CCC(=O)O)C(=O)N[C@@H](C)C(=O)N[C@@H](CC(C)C)C(=O)N[C@@H](CCCNC(=N)N)C(=O)N[C@@H](CCCCN)C(=O)N[C@@H](CCCCN)C(=O)N[C@@H](CC(C)C)C(=O)N[C@@H](CCC(N)=O)C(=O)N[C@@H](CC(=O)O)C(=O)N[C@H](C(=O)N[C@@H](Cc1c[nH]cn1)C(=O)N[C@@H](CC(N)=O)C(=O)N[C@@H](Cc1ccccc1)C(=O)O)C(C)C)C(C)C [[A1,3,23]-PTH(1-34)OH, [A^1,A^3,A^23]-PTH(1-34)OH] (H-AVAEIQLMHNLGKHLNSMERVEALRKKLQDVHNF-OH; N-terminus assumed)	–	–	–	–	4291	66.6
CC[C@H](C)[C@H](NC(=O)[C@H](CCC(=O)O)NC(=O)[C@H](C)NC(=O)[C@@H](NC(=O)[C@H](C)N)C(C)C)C(=O)N[C@@H](CCC(N)=O)C(=O)N[C@@H](CC(C)C)C(=O)N[C@@H](CCSC)C(=O)N[C@@H](Cc1c[nH]cn1)C(=O)N[C@@H](CCC(N)=O)C(=O)N[C@@H](CCCNC(=N)N)C(=O)N[C@@H](C)C(=O)N[C@@H](CCCCN)C(=O)N[C@@H](Cc1c[nH]c2ccccc12)C(=O)N[C@@H](CC(C)C)C(=O)N[C@@H](CC(N)=O)C(=O)N[C@@H](CO)C(=O)N[C@@H](CCSC)C(=O)N[C@@H](CCCNC(=N)N)C(=O)N[C@@H](CCCNC(=N)N)C(=O)N[C@H](C(=O)N[C@@H](CCC(=O)O)C(=O)N[C@@H](Cc1c[nH]c2ccccc12)C(=O)N[C@@H](CC(C)C)C(=O)N[C@@H](CCCNC(=N)N)C(=O)N[C@@H](CCCCN)C(=O)N[C@@H](CCCCN)C(=O)N[C@@H](CC(C)C)C(=O)N[C@@H](CCC(N)=O)C(=O)N[C@@H](CC(=O)O)C(=O)N[C@H](C(=O)N[C@@H](Cc1c[nH]cn1)C(=O)N[C@@H](CC(N)=O)C(=O)N[C@@H](Cc1ccccc1)C(=O)O)C(C)C)C(C)C [Mc-PTH34(R19), Mc-hPTH(1-34)OH] (H-AVAEIQLMHQRAKWLNSMRRVEWLRKKLQDVHNF-OH; N-terminus assumed)	–	–	–	–	–	65.5
CC[C@H](C)[C@H](NC(=O)[C@H](CCC(=O)O)NC(=O)[C@H](C)NC(=O)[C@@H](NC(=O)[C@H](C)N)C(C)C)C(=O)N[C@@H](CCC(N)=O)C(=O)N[C@@H](CC(C)C)C(=O)N[C@@H](CCSC)C(=O)N[C@@H](Cc1c[nH]cn1)C(=O)N[C@@H](CCC(N)=O)C(=O)N[C@@H](CCCNC(=N)N)C(=O)NCC(=O)N[C@@H](CCCCN)C(=O)N[C@@H](Cc1c[nH]cn1)C(=O)N[C@@H](CC(C)C)C(=O)N[C@@H](CC(N)=O)C(=O)N[C@@H](CO)C(=O)N[C@@H](CCSC)C(=O)N[C@@H](CCC(=O)O)C(=O)N[C@@H](CCCNC(=N)N)C(=O)N[C@H](C(=O)N[C@@H](CCC(=O)O)C(=O)N[C@@H](C)C(=O)N[C@@H](CC(C)C)C(=O)N[C@@H](CCCNC(=N)N)C(=O)N[C@@H](CCCCN)C(=O)N[C@@H](CCCCN)C(=O)N[C@@H](CC(C)C)C(=O)N[C@@H](CCC(N)=O)C(=O)N[C@@H](CC(=O)O)C(=O)N[C@H](C(=O)N[C@@H](Cc1c[nH]cn1)C(=O)N[C@@H](CC(N)=O)C(=O)N[C@@H](Cc1ccccc1)C(=O)O)C(C)C)C(C)C [[A1,3,23,Q10,R11]-PTH(1-34)OH, [A^1,A^3,A^23,Q^10,R^11]-PTH(1-34)OH]	–	–	–	–	–	63.8
CC[C@H](C)[C@H](NC(=O)[C@H](CCC(=O)O)NC(=O)[C@H](C)NC(=O)[C@@H](NC(=O)[C@H](Cc1c[nH]cn1)NC(=O)[C@@H](NC(=O)[C@H](CCC(=O)O)NC(=O)[C@H](C)NC(=O)[C@@H](NC(=O)[C@H](CC(C)C)NC(=O)[C@H](CCCCN)NC(=O)[C@H](CCCNC(=N)N)NC(=O)[C@H](CC(C)C)NC(=O)[C@H](Cc1c[nH]c2ccccc12)NC(=O)[C@H](CCC(=O)O)NC(=O)[C@@H](NC(=O)[C@H](CCCNC(=N)N)NC(=O)[C@H](CCC(=O)O)NC(=O)[C@H](CCSC)NC(=O)[C@H](CO)NC(=O)[C@H](CC(N)=O)NC(=O)[C@H](CC(C)C)NC(=O)[C@H](Cc1c[nH]cn1)NC(=O)[C@H](CCCCN)NC(=O)CNC(=O)[C@H](CC(C)C)NC(=O)[C@H](CC(N)=O)NC(=O)[C@H](Cc1c[nH]cn1)NC(=O)[C@H](CCSC)NC(=O)[C@H](CC(C)C)NC(=O)[C@H](CCC(N)=O)NC(=O)[C@@H](NC(=O)[C@H](CCC(=O)O)NC(=O)[C@H](CO)NC(=O)[C@@H](NC(=O)[C@@H](N)CO)C(C)C)[C@@H](C)CC)C(C)C)[C@@H](C)CC)[C@@H](C)CC)[C@@H](C)O)C(=O)O [PTH(1-26)/PTHrP(27-36), hPTH(1-26)/PTHrP(27-36)] (H-SVSEIQLMHNLGKHLNSMERVEWLRKLIAEIHTAEI-OH)	weaker calcemic actions than did either PTH(1-34) or PTHrP(1-36) control peptides	1.07	7.9	0.31	–	–

Source: US9057727B2, “Screening methods using G-protein coupled receptors and related compositions” (The General Hospital Corporation, priority 2007, dated 2015)
